Results from US20110021542A1, “Use of a Combination of Udenafil and Alfuzosin or Oxybutynin for the Treatment of Overactive Bladder” (PELVIPHARM, priority 2008, published 2011).

Tested on: carbachol precontracted human bladder strips
Assay: Relaxation of carbachol-precontracted human detrusor strips
Format: tissue-based
Settings: carbachol 10^-6 M precontraction; cumulative 10^-9 to 3.10^-5 M; compared with tadalafil, sildenafil, vardenafil; FIG. 1
Method: The experiments, collection and use of any tissue or other samples were carried out in accordance with the Research Plan, all relevant laws, regulations and codes of practice, including having obtaining informed consent of patients in writing. Bladders were obtained from donors undergoing cystectomy for infiltrating bladder cancer with no known bladder dysfunction according to their medical chart. In accordance with French legislation, human tissue samples were obtained with patient informed consent and after hepatitis and HIV serologies determination. After surgical procedure, bladder samples were immediately transported from the operating room to the pathologist facilities where a normal piece of the bladder dome, i.e. with no macroscopic tumoral tissue, was selected for experiments by the pathologist. […] The strips were connected to force transducers (Pioden Controls Ltd, UK) and following amplification, the tension changes were recorded via MacLab™/8 using Chart™ 5 software (AD Instruments Ltd). […] For the evaluation of the effect of drugs to inhibit carbachol-induced contractions, relaxations in response to increasing and cumulative concentrations of PDE5 inhibitors or oxybutynin or corresponding concentrations of vehicle are expressed as the percentage of inhibition of the contractile response to carbachol. […]

**Q.** How did the “inhibitory effect to relax carbachol-induced contractions of human bladder strips” value turn out when `CCCOc1ccc(S(=O)(=O)NCCC2CCCN2C)cc1-c1nc2c(CCC)nn(C)c2c(=O)[nH]1` (stereo not shown) [Udenafil, 5-[2-propyloxy-5-(1-methyl-2-pyrrolidinylethylamidosulfonyl)phenyl]-methyl-3-propyl-1,6-dihydro-7H-pyrazolo(4,3-d)pyrimidine-7-one] was run?
**A.** greater inhibitory effect than the other PDE-5 inhibitors tested
